The source of these data is patent US20250295762A1, “COMPOSITE BIOACTIVE COMPOSITIONS AND APPLICATIONS THEREOF” (THE UNIVERSITY OF NORTH CAROLINA AT CHAPEL HILL, priority 2022, published 2025).

The subject of the test is 3T3 fibroblasts. Description: Cell viability by MTT assay in fibroblasts. The class given is cell-based. Particulars: 24 h; for IC50: Fibroblast, read-out: 50% Inhibitory Concentration (IC50). The source says: All cell lines (RAW 264.7 murine macrophages, DC2.4 dendritic cells, and 3T3 fibroblasts; ATCC, Manassas, VA) were maintained according to ATCC guidelines. B3Z T cells were obtained from Dr. Nilabh Shastri (Johns Hopkins) and maintained and used as previously outlined. See, Broaders, K. E.; Cohen, J. A.; Beaudette, T. T.; Bachelder, E. M.; Frechet, J. M., Acetalated dextran is a chemically and biologically tunable material for particulate immunotherapy. Proc Natl Acad Sci USA 2009, 106 (14), 5497-502. Cell viability was determined with an MTT assay, as previously described. See, Chen, N.; Collier, M. A.; Gallovic, M. D.; Collins, G. C.; Sanchez, C. C.; Fernandes, E. Q.; Bachelder, E. M.; Ainslie, K. M., Degradation of acetalated dextran can be broadly tuned based on cyclic acetal coverage and molecular weight. Int J Pharm 2016, 512 (1), 147-157.

Values after ≈ are worked out from the molar mass of the structure shown.

In the case of `O.O.O.O.O.O.O=[N+]([O-])[O-].O=[N+]([O-])[O-].[Zn+2]` [zinc nitrate hexahydrate], the “50% Inhibitory Concentration (IC50)” value is 25.8 ± 2.1 µg/mL.
Same read-out and setting: to `CC(=O)[O-].CC(=O)[O-].[Zn+2]` [zinc acetate dihydrate] belongs 16.0 ± 1.0 µg/mL.
Consider `NCCC(=O)N[C@@H](Cc1cnc[nH]1)C(=O)O` [L-carnosine], for which the IC50 is greater than 1000 µg/mL.
Same read-out and setting: the result for `Cc1ncc[nH]1` [2-methylimidazole] reads roughly 1000 µg/mL (≈ 12.2 mM).
